Experimental data: PMC2784989 (Journal of medicinal chemistry, 2009)

Tests used:
recombinant Tdp1 [1] = target: T1, recombinant Tdp1 (Homo sapiens, UniProt Q9NUW8); assay: Tdp1 gel-based assay; type: biochemical; conditions: single-stranded N14Y substrate
Tdp1 [2] = conditions: ref [28], [29]; cited from earlier work
[3] = target: Tdp1 H493R (SCAN1 mutant) (Homo sapiens, UniProt Q9NUW8, H493R); assay: SCAN1 mutant gel assay of Tdp1-DNA covalent complex formation; type: biochemical; conditions: 100 nM H493R; DNA sequencing and protein SDS-PAGE gels
Tdp1 H493R (SCAN1 mutant), sequence (Q9NUW8 whole entry H493R): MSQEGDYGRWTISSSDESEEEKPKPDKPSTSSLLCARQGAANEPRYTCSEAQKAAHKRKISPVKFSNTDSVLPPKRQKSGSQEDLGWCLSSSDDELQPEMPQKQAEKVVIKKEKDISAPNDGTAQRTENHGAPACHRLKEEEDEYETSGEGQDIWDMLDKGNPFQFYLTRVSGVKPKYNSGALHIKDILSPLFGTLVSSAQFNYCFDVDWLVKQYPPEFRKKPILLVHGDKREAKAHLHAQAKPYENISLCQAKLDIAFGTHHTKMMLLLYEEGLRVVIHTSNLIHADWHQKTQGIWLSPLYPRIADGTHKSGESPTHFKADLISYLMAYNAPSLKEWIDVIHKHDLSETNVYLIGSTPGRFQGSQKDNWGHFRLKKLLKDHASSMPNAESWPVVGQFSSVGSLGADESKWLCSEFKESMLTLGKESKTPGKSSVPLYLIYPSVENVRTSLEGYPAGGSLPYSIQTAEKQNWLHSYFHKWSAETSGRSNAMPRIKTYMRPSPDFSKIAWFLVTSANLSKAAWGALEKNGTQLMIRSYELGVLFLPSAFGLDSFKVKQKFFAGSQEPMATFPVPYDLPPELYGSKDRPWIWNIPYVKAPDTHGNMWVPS

[4] = target: apurinic/apyrimidinic endonuclease (APE1) (Homo sapiens, UniProt P27695); assay: APE1 counter-screen gel-based assay; type: biochemical; conditions: up to 100 μM
apurinic/apyrimidinic endonuclease (APE1), sequence (P27695 whole entry): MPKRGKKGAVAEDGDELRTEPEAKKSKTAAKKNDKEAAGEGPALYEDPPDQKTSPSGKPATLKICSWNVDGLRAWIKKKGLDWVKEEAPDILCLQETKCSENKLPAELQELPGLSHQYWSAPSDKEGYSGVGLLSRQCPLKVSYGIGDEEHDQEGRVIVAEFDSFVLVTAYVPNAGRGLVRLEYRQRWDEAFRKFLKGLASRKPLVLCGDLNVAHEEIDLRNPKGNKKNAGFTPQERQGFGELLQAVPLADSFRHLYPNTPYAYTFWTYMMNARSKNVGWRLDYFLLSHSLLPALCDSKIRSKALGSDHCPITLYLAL

Tdp1 [5] = conditions: NCI-DTP diversity set screen; ref [31]; cited from earlier work
recombinant Tdp1 [6] = target: T1, recombinant Tdp1; assay: Surface plasmon resonance direct binding; conditions: ten successive 2-fold dilutions from 100 μM
human Top1 = target: T2, human Top1 (Homo sapiens, UniProt P11387); assay: Top1 DNA relaxation counter-screen assay; type: biochemical; conditions: up to 100 μM
T2 sequence (P11387 1-765): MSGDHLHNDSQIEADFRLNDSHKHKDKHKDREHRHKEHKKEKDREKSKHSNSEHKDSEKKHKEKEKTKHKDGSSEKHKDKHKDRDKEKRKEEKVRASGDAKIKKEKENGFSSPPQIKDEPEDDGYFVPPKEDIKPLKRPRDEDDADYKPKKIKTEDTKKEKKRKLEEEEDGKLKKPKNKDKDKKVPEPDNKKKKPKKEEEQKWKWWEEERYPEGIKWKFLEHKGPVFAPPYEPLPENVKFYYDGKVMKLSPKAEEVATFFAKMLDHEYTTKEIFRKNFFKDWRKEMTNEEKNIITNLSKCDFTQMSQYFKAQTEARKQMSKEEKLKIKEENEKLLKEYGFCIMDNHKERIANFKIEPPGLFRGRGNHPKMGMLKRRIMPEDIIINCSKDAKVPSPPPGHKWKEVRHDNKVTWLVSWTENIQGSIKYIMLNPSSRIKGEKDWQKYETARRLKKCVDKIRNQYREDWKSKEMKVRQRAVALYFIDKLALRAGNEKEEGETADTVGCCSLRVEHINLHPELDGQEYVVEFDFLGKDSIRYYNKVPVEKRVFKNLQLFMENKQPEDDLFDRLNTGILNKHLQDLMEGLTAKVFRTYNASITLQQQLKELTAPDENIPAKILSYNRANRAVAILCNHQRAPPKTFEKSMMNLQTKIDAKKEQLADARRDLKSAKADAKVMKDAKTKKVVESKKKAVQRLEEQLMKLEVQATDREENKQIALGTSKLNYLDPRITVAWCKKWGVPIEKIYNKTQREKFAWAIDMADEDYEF

HCT116 cells = assay: Cellular studies alone and in combination with CPT; type: cell-based; conditions: data not shown
[7] = test system: CPT-induced Top1-DNA cleavage complexes; assay: Immunocomplex of enzyme; type: cell-based; conditions: data not shown

T1 sequence (Q9NUW8 whole entry): as the sequence (Q9NUW8 whole entry H493R) above, with R493H counted along it

In the case of `CC(=O)[C@H]1CC[C@H]2[C@@H]3CCC4=CC(=O)CC[C@]4(C)[C@H]3CC[C@]12C` [progesterone, reference compound], the “Tdp1 inhibitory activity (in words)” value (recombinant Tdp1 [1]) is reported as “weakly active”.

In the case of `[O]=[V]([O-])([O-])[O-]` [vanadate], the “concentration at which Tdp1 is inhibited” value (Tdp1 [2]) is given as “millimolar concentrations”.

For `C[C@]12CC[C@H]3[C@@H](CCC4=CC(=O)CC[C@@]43C)[C@@H]1CC[C@@H]2C(=O)COS(=O)(=O)c1ccc(Br)cc1` [compound 1, 4-Pregnen-21-ol-3,20-dione-21-(4-bromobenzenesufonate)], the “formation of Tdp1-DNA covalent complexes by H493R mutant” value [3] is listed as “concentration-dependent decrease”, the “inhibition of APE1” value [4] is listed as “No evidence for inhibition” and the “inhibitory activity against Tdp1 in high-throughput screen” value (Tdp1 [5]) is listed as “low micromolar concentrations”. The “binding to surface-bound Tdp1 (SPR)” value (recombinant Tdp1 [6]) was “direct binding”, the “inhibition of human Top1 (DNA relaxation)” value (human Top1) was “No evidence for inhibition” and the “effect in combination with camptothecin in HCT116 cells” value (HCT116 cells) was “only an additive effect”. The “activity by itself in HCT116 cells” value (HCT116 cells; up to 25 μM) was “limited activity” and the “enhancement of CPT-induced Top1-DNA cleavage complexes” value [7] was “did not observe an enhancement”.

In the case of `[O]=[W](=[O])([O-])[O-]` [tungstate], the “concentration at which Tdp1 is inhibited” value (Tdp1 [2]) is given as “millimolar concentrations”.

In the case of `C[C@]12CC[C@H]3[C@@H](CCC4=CC(=O)CC[C@@]43C)[C@@H]1CC[C@@H]2C(=O)COS(C)(=O)=O` [compound 7], the “Tdp1 inhibitory activity (in words)” value (recombinant Tdp1 [1]) is reported as “minimally active” and the “binding to surface-bound Tdp1 (SPR)” value (recombinant Tdp1 [6]) is reported as “No interaction”.
